Patent US10351566B2, “Therapeutic compounds for pain and synthesis thereof” (priority 2015, dated 2019)
“Also recorded” adds a separate entry of the source. Where two headings read alike, the source gives them in different places.

Key:
14-3-3σ = 14-3-3σ expression in plasma and hind paw skin of Taxol dosed mice (Somascan); type: in vivo
Protocol: The Taxol model was used in order to investigate the MoA of Formula 1.
Animals showing chemotherapy-induced pain following repeated doses of taxol were treated with either vehicle gabapentin or Formula 1. Plasma was collected following the first dose of the test items and after 7 days of daily treatment. Skin from hind paws were also collected following 7 days of daily treatment. The tissues were processed and the expression levels on 1310 proteins were assessed (Somascan provided by SomaLogic, Inc., Boulder, Colo.).
Three statistical methods were used to identify protein expression that discriminated between Formula 1, gabapentin and vehicle on day 8, following a single dose, and on study day 14 following multiple dosing.
A comparison between day 8 and day 14 within each group was also performed. All methods were conducted on scaled data. First, a Student's t-test was performed in order to compare proteins between groups. Second, the LASSO (least absolute shrinkage and selection operator) method was applied. This is a regression technique that simultaneously performs variable selection and model coefficient modification. These models used group as the outcome and all 1310 proteins as the starting predictors. LASSO was then tuned to shrink unimportant coefficients to zero, leaving approximately the ten most important predictors of (or discriminators between) the groups. […]

in vitro [1] = type: in vitro ADME; settings: human, Caco-2
Protocol: Formula 1 was evaluated for cellular permeability using Caco-2 cell monolayers. Both the apical-to-basolateral (A-B) and basolateral-to-apical (B-A) bidirectional permeability and efflux ratios were evaluated in the assay.

in vitro [2] = type: in vitro ADME; settings: 1 μM, read-out: plasma protein bound (converted)
Protocol: The plasma protein binding assay for Formula 1 was conducted in mouse and human plasma at a single concentration of 1 μM using the method of equilibrium dialysis. […] The plasma protein binding of the compound is acceptable.

[3] = system: Taxol-induced neuropathic pain; assay: Taxol-induced neuropathic pain in mice, oral route; type: in vivo
Protocol: Study outline in brief: Animals were dosed daily with Taxol for a period of 8 consecutive days (Day 0 to Day 7). On study day 8, prior to drug dosing, the decrease in withdrawal force (tactile allodynia) was verified by applying the von Frey test. After assigning the animals to their treatment groups, the animals were treated daily for a period of 5 days with either vehicle or Formula 1 at different doses. Gabapentin at a dose of 150 mg/kg was dosed only on days of testing (day 8 and day 14).
The activity of Formula 1 following oral administration was assessed using the Taxol model (see Study Outline in section 7.1). […] Gabapentin dosed at 150 mg/kg was active for a period of 4 h post-dosing.

[4] = type: in vitro ADME, mouse, rat, human
Protocol: Metabolic stability studies in mouse, rat and human liver microsomes were performed at a compound concentration of 1 μM.
A total of five metabolites were detected in all three species. […] Due to the similarity in the plasma stability of the compound in the mouse and the human plasma, and toxicology studies would preferably be performed in the mouse.

For `CC(C)(C)C(=O)O[C@@H]1[C@@H]2[C@H]3C[C@H](C[C@@H]1N3Cc1ccccn1)CN2C(=O)CC(F)(F)F` (relative stereo) [Formula 1, (2S*,3S*,3aS*,6R*,7aR*)-1-(pyridin-2-ylmethyl)-4-(3,3,3-trifluoropropanoyl)octahydro-1H-2,6-methanopyrrolo[3,2-b]pyridin-3-yl pivalate], the “14-3-3σ expression in the skin” value (14-3-3σ; hind plantar skin, study day 14, repeated dosing, vs. vehicle) was “significantly reduced”, the “relative decrease in stratifin (14-3-3σ)” value (14-3-3σ; plasma, day 8 to day 14, daily treatment, Taxol dosed mice, vs. naïve animals) was roughly 50% and the efflux ratio (in vitro [1]) was 10.4. It also gave a Papp A→B (in vitro [1]; apical-to-basolateral) of 6.6 ×10⁻⁶ cm/s, a Papp B→A (in vitro [1]; basolateral-to-apical) of 68.3 ×10⁻⁶ cm/s and a fraction unbound (in vitro [2]; human plasma) of 0.08. For the same compound, the fraction unbound (in vitro [2]; mouse plasma) was 0.16, the withdrawal force ([3]; Taxol mice, oral 50 mg/kg, 2 h post-single administration, study day 8) was “active in fully reversing the withdrawal force” and the withdrawal force ([3]; Taxol mice, oral 50 mg/kg, 24 h post-dosing (study day 14 pre-dosing)) was “significantly active”. For the same compound, the tolerance effect ([3]; Taxol mice, oral 50 mg/kg, repeated daily dosing) was “No tolerance effect was noted”, the “heat hyperalgesia (hotplate test)” value ([3]; Taxol mice, oral 50 mg/kg, 50 mg/kg) was “No activity was found; also recorded: not statistically different from the vehicle-treated group” and the “Dose of maximum activity” value ([3]; Taxol model, PO, mice) was less than 50 mg/kg. The “Duration of activity at maximum effect” value ([3]; Taxol model, PO, mice) was 24 H, the “Level of activity (% of maximum effect-baseline)” value ([3]; Taxol model, PO, mice) was 100% and the “Peak of activity (T)” value ([3]; Taxol model, PO, mice) was 2-6 H. The unique human metabolites [4] was “No unique human metabolites were detected”, the total metabolites detected ([4]; in all three species) was “five” and the major metabolic pathways ([4]; mouse, rat and human liver microsomes) was “N-dealkylation and oxidation”.
